In PubChem BioAssay AID2060345 (Molecular Pharmacology Branch, DTP, NCI, 2025):
Several values for one entry are separate records, joined by “and”; a condition that tells them apart may be missing. Equal values may be shown once.

Test system: MALME-3M multicell spheroids, viability
Assay: Anticancer human tumor MALME-3M cell line growth inhibition [TAK];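 further: spheroids exposed to drugs for seven days before readout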
Details: for viability, T/C: stronger effect = lower value; active means viability on the fitted dose curve at most 10% of control; inactive means the rest
Text: Combinatorial screen of targeted agents with TAK-243 and ipatasertib in multi-cell type tumor spheroids
A high-throughput screen of multi-cell type tumor spheroids was designed to identify active combinations of targeted small molecules and TAK-243 or ipatasertib. Complex spheroids include a stromal component modeled by human endothelial cells (HUVEC) and fibroblasts modeled by human mesenchymal stem cells (MSCs). The concentration ranges selected for each drug and investigational agent were based upon clinically achievable concentrations if the clinical Cmax of the agent was known.
Compounds. The drugs and investigational agents: TAK-243 (785004), ipatasertib (767898), everolimus (733504), selumetinib (741078), bortezomib (756655), trametinib (758246), ixazomib (758254), vemurafenib (761431), dabrafenib (764134), sapanisertib (764658), alpelisib (765974), and copanlisib (816437), were obtained from the National Cancer Institute (NCI) Developmental Therapeutics Program Chemical Repository. The FDA-approved anticancer drug set is available from the NCI Developmental Therapeutics Program. […] The stock solutions were prepared in dimethyl sulfoxide (DMSO, Sigma-Aldrich, St. Louis, MO, cat. D2650) at 800-fold the tested concentration and stored at -70 degrees C prior to their use. All drugs and investigational agents were tested over a range starting from a high concentration at or near the clinical Cmax and decreasing in half-log increments. If the clinical Cmax for an agent had not been determined, the highest concentration tested was 10 microM.
NCI60 Cell Culture. NCI60 cell lines were obtained from the NCI Developmental Therapeutics Program Tumor Repository. For each lot of cells, the Repository performed Applied Biosystems AmpFLSTR Identifiler testing with PCR amplification to confirm consistency with the published Identifier STR profile for each cell line. Cells were kept in continuous culture for no more than 20 passages. The optimal seeding densities for each of the cell lines at each time point assessed were determined prior to performing the concentration response studies. Briefly, the NCI60 human tumor lines were grown as monolayers in RPMI 1640 medium supplemented with 10% FBS and 2 mmol/L L-glutamine.
An additional 2 lines were from the NCI60 cell line panel including melanomas, MALME-3M and SK-MEL-2. Pooled donor human umbilical vein endothelial cells (HUVEC, Lonza, cat. CC-2519) and human mesenchymal stem cells (hMSC, Lonza, cat. PT-2501) were purchased from Lonza (Walkersville, MD).
PDMR cell lines were grown in complete medium (DC medium): Dulbecco's modified Eagle's medium (DMEM)/F12 supplemented with 5% fetal bovine serum (FBS), 2 mM L-glutamine, 100 U/mL penicillin and 100 µg/ml streptomycin, 0.4 µg/ml hydrocortisone, 10 ng/ml epidermal growth factor (EGF) recombinant human protein, 24 µg/mL adenine, and 0.1 mg/mL primocin. During culture from frozen stock vials, PDMR cells were cultured in the same medium containing 10 µM Y-27632 (see Table 3). The PDCs were cultured in complete DMEM/F12 media without 10 microM Y-27632 dihydrochloride for at least two passages prior to the screen. The pooled donor HUVEC and hMSC were cultured in endothelial cell growth medium 2 (PromoCell, Heidelberg, Germany, cat. C-22011) and mesenchymal stem cell growth medium 2 (PromoCell, cat. C-28009), respectively. For all experiments, HUVEC and hMSC were used at passages </=5.
For the pre-screen, cell seeding densities were determined from a titration spanning the range from 5,000 to 313 cells per well. The mct-spheroids including 60% malignant cells, 25% HUVEC and 15% MSC dispensed as a mixture into U-bottom Ultra-Low Attachment 384-well plates (Corning, NY)
High-throughput Drug Combination Screening.
Prior to their inoculation into 384-well plates, malignant cells, HUVEC, and hMSC were removed from T flasks using TrypLE express (Thermo Fisher Scientific, cat. 12605036) and harvested by centrifugation for 5 min at 233 x g. […]

CC(C)CC(NC(=O)CNC(=O)c1cc(Cl)ccc1Cl)B1OC(=O)CC(CC(=O)O)(C(=O)O)O1 (centres undefined) + CC(C)NCC(C(=O)N1CCN(c2ncnc3c2C(C)CC3O)CC1)c1ccc(Cl)cc1
9.34 nM: IC50 (curve of first compound, second compound 3 µM)
16.8 nM: IC50 (curve of first compound, second compound 0.3 µM)
active: viability, T/C (second compound 0.3 µM, first compound 0.1 µM) 0.25% | viability, T/C (second compound 0.949 µM, first compound 0.1 µM) 0.17% | viability, T/C (second compound 3 µM, first compound 0.0316 µM) 6.98% | viability, T/C (second compound 3 µM, first compound 0.1 µM) 0.17% | viability, T/C (second compound 9.49 µM, first compound 0.0316 µM) 5.18% | viability, T/C (second compound 9.49 µM, first compound 0.1 µM) 0.17% | viability, T/C (second compound 30 µM, first compound 0.0316 µM) 4.73% | viability, T/C (second compound 30 µM, first compound 0.1 µM) 0.24%
17.5 nM: IC50 (curve of first compound, second compound 0.949 µM)
inactive: viability, T/C (second compound 0.3 µM, first compound 0.000316 µM) 109% | viability, T/C (second compound 0.3 µM, first compound 0.001 µM) 97.2% | viability, T/C (second compound 0.3 µM, first compound 0.00316 µM) 90.6% | viability, T/C (second compound 0.3 µM, first compound 0.01 µM) 82.6% | viability, T/C (second compound 0.3 µM, first compound 0.0316 µM) 10.4% | viability, T/C (second compound 0.949 µM, first compound 0.000316 µM) 92.4% | viability, T/C (second compound 0.949 µM, first compound 0.001 µM) 89% | viability, T/C (second compound 0.949 µM, first compound 0.00316 µM) 95.4% | viability, T/C (second compound 0.949 µM, first compound 0.01 µM) 87.2% | viability, T/C (second compound 0.949 µM, first compound 0.0316 µM) 10.7% | viability, T/C (second compound 3 µM, first compound 0.000316 µM) 90.5% | viability, T/C (second compound 3 µM, first compound 0.001 µM) 77% | viability, T/C (second compound 3 µM, first compound 0.00316 µM) 77.5% | viability, T/C (second compound 3 µM, first compound 0.01 µM) 49.1% | viability, T/C (second compound 9.49 µM, first compound 0.000316 µM) 70.9% | viability, T/C (second compound 9.49 µM, first compound 0.001 µM) 68% | viability, T/C (second compound 9.49 µM, first compound 0.00316 µM) 64.8% | viability, T/C (second compound 9.49 µM, first compound 0.01 µM) 57.6% | viability, T/C (second compound 30 µM, first compound 0.000316 µM) 48.2% | viability, T/C (second compound 30 µM, first compound 0.001 µM) 49.8% | viability, T/C (second compound 30 µM, first compound 0.00316 µM) 45.2% | viability, T/C (second compound 30 µM, first compound 0.01 µM) 30.9%
11.8 nM: IC50 (curve of first compound, second compound 9.49 µM)
< 0.316 nM: IC50 (curve of first compound, second compound 30 µM)

CC(C)CC(NC(=O)C(Cc1ccccc1)NC(=O)c1cnccn1)B(O)O (centres undefined)
2.14 nM and 1.56 nM: IC50 (curve of compound)
active: viability, T/C (compound 0.01 µM) 0.68% and 0.19%
inactive: viability, T/C (compound 31.6 pM) 105% and 95.5% | viability, T/C (compound 0.0001 µM) 97.5% and 87.7% | viability, T/C (compound 0.000316 µM) 98.5% and 86.3% | viability, T/C (compound 0.001 µM) 97.5% and 70.5% | viability, T/C (compound 0.00316 µM) 25.8% and 18.3%

Cc1nc(NC(=O)N2CCCC2C(N)=O)sc1-c1ccnc(C(C)(C)C(F)(F)F)c1 (centres undefined)
inactive: viability, T/C (compound 0.0316 µM) 100% and 86.7% | viability, T/C (compound 0.1 µM) 98.8% and 96.3% | viability, T/C (compound 0.316 µM) 83.6% and 72.6% | viability, T/C (compound 1 µM) 70.6% and 81.7% | viability, T/C (compound 3.16 µM) 61.6% and 68.2% | viability, T/C (compound 10 µM) 50% and 41.9%
> 10000 nM and 7080 nM: IC50 (curve of compound)
